Key:
Format in all cases: cell-based
[1] = test system: SW620 cells; experiment: SW620 Cell Growth Inhibition Test (SRB Assay); settings: Homo sapiens, SW-620, 91 h incubation
Method: SW620 Cell Growth Inhibition Test (SRB Assay)
Cell strains: SW620 (human colorectal cancer cell strains);
SRB: available from Sigmaaldrich, goods number: S9012, lot number: 047K3751. […] was reserved at the room temperature. 0.4% (w/v) of working solution was formulated with 1% of glacial acetic acid. The solution was reserved at 4° C.; anti-tumor compounds; DMSO.
Culture medium: 90% L15+10% FBS;
1. A plate (10 cm) of cells in logarithmic growth phase normally cultured was collected. The culture solution was sucked out. The plate was washed wtih 5 mL of PBS 1-2 times;
2. PBS was sucked out. […] of 0.25% pancreatin was added to infiltrate the cells for 30 s;
3. The pancreatin was sucked out. The culture plate was placed in an incubator. Digestion was carried out for about 1.5-2 min at 37° C.;
4. 4 mL of complete culture solution was added to the culture plate to stop the digestion. The cells were carefully scoured with micropipette (1 ml) to give a uniform single cell suspension;
5. Cell suspension was counted. The suspension was diluted to 1.5×10^5/ml. The resulting suspension was developed uniformly on a plate by 15000 cells/100 μl per well. The culture plate was incubated overnight under 5% CO2 at 37° C. In day 2, 100 μl of culture solution comprising a compound was added in each well, and further incubated for 91 h under 5% CO2 at 37° C.;
(§1) 6. The culture solution was sucked out. 100 uL of TCA fixed cells which were diluted to 10% were added to each well. The plate was kept in a refrigerator for 1 h at 4° C.
(§2) 7. TCA stationary liquid was sucked out. Each well was washed with 150 μL of ddH2O five times;
(§3) 8. After the stationary liquid was cleansed, the plate was dried in the air at the room temperature;
(§4) 9. 60 μL of SRB staining solution was added in each well. The well was stained for 15 min at the room temperature;
(§5) 10. The SRB staining solution was sucked out. Each well was washed with 150 μL of 1% glacial acetic acid five times;
(§6) 11. After the SRB staining solution was cleansed, the plate was dried in the air at the room temperature;
(§7) 12. 100 μL of 10 mM Tris was added in each well, the plate was vibrated to dissolve out SRB;
(§8) 13. OD values were determined at 570 nM.
To: OD values of the starting content of cells when the cells were developed on a plate;
PC: OD values of cells after normal growth in control wells without a compound;
Ti: OD values of cells after growth in test wells with a compound;
NC: Background OD values of blank wells without a compound and cells
Therefore: Ratio of cells in test wells to normal wells (% of control cell growth)=(Ti−To)/(PC−To)×100%
Ratio GI50 was concentration of a compound at the point of 50%.
Therefore: Ratio of killed cells to inoculated cells (% of killed cell)=(Ti−To)/(To−NC)×100%
LC50 was concentration point of a compound when half of the starting inoculated concentration was reached.
Concentration of a compound at this point is defined as TGI (total growth inhibition).

[2] = test system: BxPc-3 cells; experiment: BxPc-3 Cell Growth Inhibition Test (MTT Assay); settings: Homo sapiens, 72 h incubation
Method: BxPc-3 Cell Growth Inhibition Test (MTT Assay) Cell strains: BxPC-3 (human pancreatic cancer cell strains); Culture medium: 90% RPMI-1640+10% FBS; 1. A plate (10 cm) of cells in logarithmic growth phase normally cultured was collected; 2. The culture solution was sucked out. […] The plate was washed with 5 ml of PBS 1-2 times; 3. PBS was sucked out. 1.5 ml of 0.25% pancreatin was added to infiltrate the cells for 1 min; 4. The pancreatin was sucked out. The culture plate was placed in an incubator. Digestion was carried out for about 5 min at 37° C.; 5. 4.5 ml of complete culture solution was added to the culture plate to stop the digestion. The cells were carefully scoured with micropipette (1 ml) to give a uniform cell suspension. The suspension was implanted into a 96-well cell culture plate by 5000 cells/100 μl per well. The culture plate was incubated overnight under 5% CO2 at 37° C. In day 2, 100 μl of culture solution comprising a compound was added in each well, and further incubated for 72 h under 5% CO2 at 37° C. 6. The culture solution was sucked out; 7. 100 μl of serum-free culture solution containing 0.5 mg/ml MTT was added in each well, and incubated for 3 h; 8. The culture solution was carefully sucked out; 9. 100 μl of DMSO was added in each well and vibrated to dissolve; 10. OD values were determined at […]. 1. Calculation of Relative Inhibition Ratio The inhibition ratio of a compound on cell growth=(PC−n)/(PC−NC)×100% IC50: Concentration of a compound where inhibition ratio was 50%. IC50 values were fitted with Origin7.5.

[3] = test system: NCI-H1650 cells; experiment: NCI-H1650 Cell Growth Inhibition Test (SRB Assay); settings: Homo sapiens, 72 h incubation
Method: NCI-H1650 Cell Growth Inhibition Test (SRB Assay)
1. Cell strains: NCI-H1650 (human non-small cell lung cancer cell strains);
2. SRB, 0.4% (w/v) working solution was formulated with 1% glacial acetic acid and reserved at 4° C.; antitumor compounds; DMSO
1. A plate (10 cm) of cells in logarithmic growth phase normally cultured was collected;
2. The culture solution was sucked out. The plate was washed with 5 mL of PBS 1-2 times;
3. 1.5 mL of 0.25% pancreatin was added to the plate to infiltrate the cells;
4. The pancreatin was sucked out. The culture plate was placed in an incubator. Digestion was carried out for about 3 min at 37° C.;
5. 4 mL of complete culture solution was added to the culture plate to stop the digestion. The cells were carefully scoured with micropipette (1 ml) to give a uniform single cell suspension. The suspensin was implanted into a 96-well cell culture plate by 6000 cells/100 μl per well. The culture plate was incubated overnight under 5% CO2 at 37° C. In day 2, 100 μl of culture solution comprising a compound was added in each well, and further incubated for 72 h under 5% CO2 at 37° C.;
as §1, §2, §3, §4, §5, §6, §7, §8
1. Calculation of Relative Inhibition Ratio The inhibition ratio of a compound on cell growth=(PC−n)/(PC−NC)×100%
IC50: Concentration of a compound where inhibition ratio was 50%. IC50 values were fitted with Origin7.5.

Structure (SMILES) | GI50 [1] | IC50 [2] | IC50 [3]
CN(C)C/C=C/C(=O)Nc1cc2c(Nc3ccc(OCc4ccccn4)c(Cl)c3)c(C#N)cnc2cc1OC1CCOC1 (stereo not drawn) [Example 21, (E)-N-(4-(3-CHLORO-4-(PYRIDIN-2-YL-METHOXY)PHENYLAMINO)-3-CYANO-7-(TETRAHYDROFURAN-3-YL-OXY)QUINOLIN-6-YL)-4-(DIMETHYLAMINO)-BUT-2-ENAMIDE] | 1.78 µM |  | 
CN(C)C/C=C/C(=O)Nc1cc2c(Nc3ccc(OCc4ccccn4)c(Cl)c3)c(C#N)cnc2cc1O[C@@H]1CCOC1 [Example 139, (R,E)-N-(4-(3-CHLORO-4-(PYRIDIN-2-YL-METHOXY)PHENYLAMINO)-3-CYANO-7-(TETRAHYDROFURAN-3-YL-OXY)QUINOLIN-6-YL)-4-(DIMETHYLAMINO)-BUT-2-ENAMIDE] | 1.9 µM | 0.188 µM | 1.13 µM
CN(C)C/C=C/C(=O)Nc1cc2c(Nc3ccc(OCc4ccccn4)c(Cl)c3)c(C#N)cnc2cc1O[C@H]1CCOC1 [Example 138, (S,E)-N-(4-(3-CHLORO-4-(PYRIDIN-2-YL-METHOXY)PHENYLAMINO)-3-CYANO-7-(TETRAHYDROFURAN-3-YL-OXY)QUINOLIN-6-YL)-4-(DIMETHYLAMINO)-BUT-2-ENAMIDE] | 1.78 µM | 0.337 µM | 1.1 µM
CN(C)C/C=C/C(=O)Nc1cc2c(Nc3ccc(F)c(Cl)c3)c(C#N)cnc2cc1OC1CCOC1 (stereo not drawn) [Example 4, (E)-N-(4-(3-CHLORO-4-FLUOROPHENYLAMINO)-3-CYANO-7-(TETRAHYDROFURAN-3-YL-OXY)QUINOLIN-6-YL)-4-(DIMETHYLAMINO)-BUT-2-ENAMIDE] | 3.5 µM |  | 
CN(C)C/C=C/C(=O)Nc1cc2c(Nc3ccc(F)c(Cl)c3)c(C#N)cnc2cc1O[C@H]1CCOC1 [Example 142, (S,E)-N-(4-(3-CHLORO-4-FLUOROPHENYLAMINO)-3-CYANO-7-(TETRAHYDROFURAN-3-YL-OXY)QUINOLIN-6-YL)-4-(DIMETHYLAMINO)-BUT-2-ENAMIDE] | 2.3 µM | 0.416 µM | 
CN(C)C/C=C/C(=O)Nc1cc2c(Nc3ccc(OCc4cccc(F)c4)c(Cl)c3)c(C#N)cnc2cc1OC1CCOC1 (stereo not drawn) [Example 9, (E)-N-(4-(4-(3-FLUOROBENZYLOXY)-3-CHLOROPHENYLAMINO)-3-CYANO-7-(TETRAHYDROFURAN-3-YL-OXY)QUINOLIN-6-YL)-4-(DIMETHYLAMINO)-BUT-2-ENAMIDE] | 2.1 µM |  | 0.636 µM

Other lines, results leading:

GI50 [1] | IC50 [2] | IC50 [3] | Structure (SMILES)
1.68 µM |  |  | C#Cc1cccc(Nc2c(C#N)cnc3cc(OC4CCOC4)c(NC(=O)/C=C/CN(C)C)cc23)c1 (stereo not drawn) [Example 5, (E)-N-(3-CYANO-4-(3-ETHYNYLPHENYLAMINO)-7-(TETRAHYDROFURAN-3-YL-OXY)QUINOLIN-6-YL)-4-(DIMETHYLAMINO)-BUT-2-ENAMIDE]
1.4 µM |  |  | C#Cc1cccc(Nc2c(C#N)cnc3cc(O[C@@H]4CCOC4)c(NC(=O)/C=C/CN(C)C)cc23)c1 [Example 141, (R,E)-N-(3-CYANO-4-(3-ETHYNYLPHENYLAMINO)-7-(TETRAHYDROFURAN-3-YL-OXY)QUINOLIN-6-YL)-4-(DIMETHYLAMINO)-BUT-2-ENAMIDE]
2.3 µM |  |  | C#Cc1cccc(Nc2c(C#N)cnc3cc(O[C@H]4CCOC4)c(NC(=O)/C=C/CN(C)C)cc23)c1 [Example 140, (S,E)-N-(3-CYANO-4-(3-ETHYNYLPHENYLAMINO)-7-(TETRAHYDROFURAN-3-YL-OXY)QUINOLIN-6-YL)-4-(DIMETHYLAMINO)-BUT-2-ENAMIDE]

— US9187458B2, “Cyanoquinoline derivatives” (Tianjin Hemay Bio-Tech Co., LTD., priority 2010, dated 2015)
